{
  "source": "patent US20250360119A1",
  "about": "“THIAZOLIDINEDIONES FOR THE TREATMENT OF MUSCULAR DYSTROPHIES” (The Johns Hopkins University, priority 2022, published 2025)",
  "origin": "cited, not measured here",
  "key": {"[1]": {"conditions": "clinical studies"}, "aged mice": {"system": "aged mice", "conditions": "injected into the muscle directly"}},
  "data": [
    {"molecule": "CC1(COc2ccc(CC3SC(=O)NC3=O)cc2)CCCCC1", "note": "(stereo not shown) [ciglitazone, 5-[4-(1-methylcyclohexylmethoxy)benzyl]-thiazolidine-2,4-dione]", "values": [
      {"measurement": "blood glucose levels", "setting": "KKAy mice", "result": "reduce blood glucose levels without increasing insulin secretion"},
      {"measurement": "peripheral insulin resistance", "setting": "KKAy mice", "result": "reduce peripheral insulin resistance"}
    ]},
    {"molecule": "CN(CCOc1ccc(CC2SC(=O)NC2=O)cc1)c1ccccn1", "note": "(stereo not shown) [rosiglitazone]", "values": [
      {"measurement": "cardiovascular toxicity", "setting": "[1]", "result": "no longer considered significant issues"}
    ]},
    {"molecule": "recombinant GDF3: recombinant Growth Differentiation Factor 3, a member of the TGFβ family (protein, UniProt Q9NR23 251-364, looked up) Growth/differentiation factor …: AAIPVPKLSCKNLCHRHQLFINFRDLGWHKWIIAPKGFMANYCHGECPFSLTISLNSSNYAFMQALMHAVDPEIPQAVCIPTKLSPISMLYQDNNDNVILRHYEDMVVDECGCG", "values": [
      {"measurement": "delay in muscle regeneration after CTX injury", "setting": "aged mice", "result": "able to alleviate some of the delay"}
    ]}
  ]
}
